Measurements as given in patent EP4151203B1, “RAPESEED MEAL EXTRACT, METHOD FOR PREPARING SAME AND USE IN COSMETICS, IN PARTICULAR AS A PRO-PIGMENTING, SLIMMING AGENT” (Lyster, priority 2021, dated 2023).
“And” between values parts separate entries of the source, which are not always exact repeats. Identical values can stand only once. Marks after values point to notes of the source that are not given here.

Experiments:
[1] = tested on: mélanocytes humains normaux; assay: Propigmenting activity: melanin production by melanocytes (optical density at 405 nm); type: cell-based, humain; details: 250 µM
Protocol: Les mesures de l'activité propigmentante (augmentation de la production de mélanine) de plusieurs compositions de l'extrait de tourteau de colza présentant des concentrations différentes ont été effectuée par dosage des mélanocytes humains normaux in vitro.
Les compositions de concentrations 0,03% (v/v), 0,1% (v/v), et 0,3% (v/v) ont été préparées par dilution de la solution 50/50 dans le milieu d'incubation.
Les cultures des mélanocytes normaux d'épiderme humain ont été cultivés en culture monocouche jusqu'à confluence. Puis les mélanocytes ont été incubés pendant 72 heures soit en l'absence de l'extrait à tester (contrôle) soit en présence des différentes compositions de l'extrait à tester. Le produit de référence pour l'inhibition de la synthèse de mélanine était une solution d'acide kojique à 250 µM.
Les quantités de mélanine produite par les mélanocytes ont été déterminées par une méthode spectrophotométrique c'est-à-dire une mesure de densité optique à 405 nm effectuée au moyen d'un spectrophotomètre « Genesys 150 » de la société ThermoFisher Scientific.
Le tableau 7 présente la quantité de mélanine (µg) produite par mg de protéines totales dans le lysat cellulaire monocouche.
Le niveau de signification entre le "contrôle" et la « référence » a été évalué à l'aide d'un test t de Student (* : p<0,05). [Tableau 7]

[2] = tested on: adipocytes humains normaux; assay: Lipolytic activity: NEFA released by adipocytes in suspension; type: cell-based, humain; details: for NEFA, Moyenne / NEFA: 2 h; for NEFA, Moyenne: mean of 3, p<0.05 vs control; for NEFA: single replicate
Source text: Les mesures de l'activité lipolytique de plusieurs compositions d'extrait de tourteau de colza à des concentrations différentes ont été effectuées sur des adipocytes humains normaux de tissu cutané adipeux prélevé sur un adulte de 40 ans. Une suspension des adipocytes humains a été incubée pendant 2 H en présence d'une part des compositions d'extrait à tester et d'autre part du produit de référence (contrôle).
Les compositions de concentrations 0,003% (v/v), 0,01% (v/v), et 0,03% (v/v) d'extrait de tourteau de colza ont été préparées par dilution de la solution 50/50 dans le milieu d'incubation.
À la fin de la période d'incubation, la quantité de NEFA libérés dans le milieu d'incubation a été déterminée à l'aide d'un kit de mesure spectro-colométrique spécifique et sensible.
Le niveau de signification entre le "contrôle" et le "produit de référence" a été évalué à l'aide d'un test t de Student (* : p<0,05).
Le niveau de signification entre le le "contrôle" et chaque "composé testé" a été évalué indépendamment pour chaque composition par une analyse de variance à un facteur (ANOVA à sens unique) suivie d'un test de Holm-Sidak (* : p<0,05).

Compound | mélanine, % du contrôle ([1]; 72 h) [%] | µg mélanine/mg de protéines, Moyenne ([1]; 72 h, mean of 3, p<0.01 vs control) | µg mélanine/mg de protéines ([1]; 72 h, single replicate) | inhibe la production de mélanine ([1]; inhibition vs control, significant) | NEFA, Moyenne ([2]; 10^-3 mol/L) | NEFA ([2]; 10^-3 mol/L) | augmente la lipolyse des adipocytes ([2]; 10^-3 mol/L, increase vs control, p<0.05) [%] | NEFA, Moyenne ([2]; 10^-4 mol/L) | NEFA ([2]; 10^-4 mol/L)
O=c1cc(CO)occ1O [acide kojique] | 52.4 | 35.8** µg mélanine/mg de protéines | 45.1 µg mélanine/mg de protéines and 30.3 µg mélanine/mg de protéines and 32.0 µg mélanine/mg de protéines | 47,6% | – | – | – | – | –
Cn1c(=O)c2c(ncn2C)n(C)c1=O [Caféine, caféine] | – | – | – | – | 47.9* µM | 41.5 µM and 50.3 µM and 51.9 µM | 41.1 | 37.7* µM | 37.1 µM and 38.8 µM and 37.2 µM
